Data published in US6531499B2, “Matrix metalloproteinase inhibitors and method of using same” (Wisconsin Alumni Research Foundation, priority 1999, dated 2003).

Experiments:
[1] = test system: F442A fibroblast; assay type: cell-based; details: concentrations up to 100 μM; 6 to 24 hours in serum-free medium
Protocol: Toxicity of the compounds was determined by incubating several log doses of the compound and solvent controls for 6 to 24 hours in serum-free medium. The cell number was then determined by comparing the absorbance of crystal violet with controls, and cell death determined by trypan blue dye exclusion in conventional and well known fashion. The model cell line used was a murine fibroblast cell line designated F442A, which was generously provided by Dr. Howard Green of Harvard University.
The compounds were cleaved from the beads into a single solution and tested in this combined fashion.

[2] = test system: HiMel cells; experiment: In vitro invasion assay: HiMel cell penetration of […] (Transwell); assay type: cell-based, human; details: same assay as Example 3; concentration not given
Text: An 8 μm pore filter coated with “[…]” separates a series of lower compartments containing a chemoattractant and a corresponding series of upper compartments containing metastatic and non-metastatic cells and a compound to be tested. The metastatic cells are able to degrade the “[…]” barrier and, over a period of time, migrate through the pores of the filter whereas non-metastatic cells remain on the upper surface. The cells that pass to the underside of the filter are counted under a microscope to determine the extent to which they are able to pass from the upper compartment into the lower compartment. […]
This method has been refined to increase the number of assays which may be performed and analyzed per day. […] Motility of the cells through the 8 μm filters is not by passive diffusion since the pore size is smaller than the cells, and is determined in the same chamber in the absence of “[…]”. […]
Compounds to be tested were dissolved in DMSO and were added in serial dilutions of 0 (control) 1, and 10 μM. […] Invasive cells found on the under side of the filter were measured by solubilizing the stain in 10% acetic acid 20% methanol and reading the absorbance at 595 nm.

[3] = target: T1, MMP-2 (Homo sapiens, UniProt P08253); experiment: Colorimetric 96-well thiopeptolide collagenase assay; assay type: biochemical; details: change in absorbance at 405 nm
T1 sequence (P08253 110-660): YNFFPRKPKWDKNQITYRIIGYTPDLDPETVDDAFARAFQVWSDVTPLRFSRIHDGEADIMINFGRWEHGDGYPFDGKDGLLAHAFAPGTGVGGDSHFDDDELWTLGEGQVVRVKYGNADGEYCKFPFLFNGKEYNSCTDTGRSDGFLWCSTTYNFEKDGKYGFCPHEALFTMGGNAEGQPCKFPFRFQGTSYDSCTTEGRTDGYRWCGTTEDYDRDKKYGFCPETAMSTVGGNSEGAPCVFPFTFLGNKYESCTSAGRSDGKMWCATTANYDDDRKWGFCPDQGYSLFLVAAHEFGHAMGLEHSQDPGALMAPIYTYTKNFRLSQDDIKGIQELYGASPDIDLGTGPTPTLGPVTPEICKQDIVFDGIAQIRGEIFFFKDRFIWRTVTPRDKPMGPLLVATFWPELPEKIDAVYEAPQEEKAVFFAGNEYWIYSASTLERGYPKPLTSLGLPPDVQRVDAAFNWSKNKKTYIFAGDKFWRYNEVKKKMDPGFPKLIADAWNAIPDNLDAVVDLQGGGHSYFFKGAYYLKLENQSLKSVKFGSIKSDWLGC
Protocol: The preferred assay method to measure MMP inhibitory activity is a colorimetric assay which can be monitored spectrophotometrically. Specifically, the ability of the subject matrix metalloproteinase inhibitors to suppress MMP-2 or MMP-9 activity is assessed using a colorimetric 96-well thiopeptolide collagenase assay as described by Xia et al. (Xia T, Akers K, Eisen A Z and Seltzer J L. (1996) Biochim et Biophy Acta. 1293:259). This protocol entails the cleavage of a thiopeptolide substrate AcProLeuGly-S-LeuGlyOC2H5 (Bachem Bioscience, Cat # H7145) by MMP-2 or MMP-9, giving a free sulfhydryl group. The free —SH then reacts with DTNB (Ellman's reagent, 5,5′-dithio-bis(2-nitrobenzoic acid)) giving a colored molecule whose formation can be examined spectrophotometrically at 405 nm.
The thiopeptolide substrate (5 μL/well, 5 mM in DMF), DTNB (15 μL/well, 10 mM in 50 mM HEPES, 10 mM CaCl2, pH 6.92), and matrix metalloproteinase inhibitors or DMSO (total volume equal to 5 μL/well) are mixed in a 96-well plate (Falcon). A single row of wells is used for each matrix metalloproteinase inhibitor and various inhibitor concentrations are used to control for row to row variation in collagenase activity. The reaction is then initiated by pipeting 130 μL of a solution of collagenase buffer (126 μL/well, 50 mM HEPES, 10 mM CaCl2, pH 6.92) and activated MMP-2 or MMP-9 (4 μL/well, 0.05 M borate, pH 7.46, 5 mM CaCl2 , 20% glycerol, 0.0005% Brij-35) into a row of wells using a 12-channel multipipeter. The change in absorbance from 0-20 minutes is then monitored at 405 nm using an ELX 800 automated microplate reader (Bio-Tek Instruments, Inc., Winooski, Vt.). The change in absorbance is calculated and graphed.
The thiopeptolide substrate AcProLeuGly-S-LeuGlyOC2H5 (5 μL/well, 5 mM in DMF), DTNB (15 μL/well, 10 mM in 50 mM HEPES, 10 mM CaCl2, pH 6.92), and matrix metalloproteinase inhibitors or DMSO (total volume equal to 5 μL/well) were mixed in a 96-well plate. A single row of wells was used for each concentration of the test compound and concentrations of 10, 20, and 40 μM of the test compound were used. The reaction was then initiated by pipeting 130 μL of a solution of collagenase buffer (126 μL/well, 50 mM HEPES, 10 mM CaCl2, pH 6.92) and activated MMP-2 (4 μL/well, 0.05 M borate, pH 7.46, 5 mM CaCl2, 20% glycerol, 0.0005% Brij-35) into a row of wells using a 12-channel multipipeter. The change in absorbance from 0-20 minutes was then monitored at 405 nm. The change in absorbance was calculated and graphed; the results are depicted in FIG. 4.

[4] = 0 (control), 40, 80, and 160 μM

SMILES | effect on the growth / viability of fibroblasts [1] | inhibition of HiMel MATRIGEL invasion as compared to the control [2] | inhibition of MMP-2 collagenase activity ([3]; 10, 20, and 40 μM, 0-20 minutes) | inhibition of MMP-2 collagenase activity [3, 4]
O=C(CN(Cc1ccccc1)C(=O)CN(CCCc1ccccc1)C(=O)Nc1ccc(Oc2ccccc2)cc1)NO | no significant effect | approximately 50% | inhibited MMP-2 collagenase activity in a dose-dependent manner | –
O=C(CN(CCCCc1ccccc1)C(=O)CN(CCCc1ccccc1)C(=O)Nc1ccc(Oc2ccccc2)cc1)NO | no significant effect | – | – | inhibits MMP-2 collagenase activity in a dose-dependent fashion
NC(=O)CN(Cc1ccccc1)C(=O)CN(CCCc1ccccc1)C(=O)Nc1ccc(Oc2ccccc2)cc1 | – | – | – | inhibits MMP-2 collagenase activity in a dose-dependent fashion
O=C(Nc1ccc(Oc2ccccc2)cc1)Nc1ccc(Oc2ccccc2)cc1 | – | – | – | inhibits MMP-2 collagenase activity in a dose-dependent fashion
O=C(Nc1ccc(Oc2ccccc2)cc1)Nc1ccc(-c2ccccc2)cc1 | – | approximately 50% | – | inhibits MMP-2 collagenase activity in a dose-dependent fashion
